Consider 1 compound from ChEMBL document CHEMBL4610123, “Structure-Based Drug Discovery of N-((R)-3-(7-Methyl-1H-indazol-5-yl)-1-oxo-1-(((S)-1-oxo-3-(piperidin-4-yl)-1-(4-(pyridin-4-yl)piperazin-1-yl)propan-2-yl)amino)propan-2-yl)-2'-oxo-1',2'-dihydrospiro[piperidine-4,4'-pyrido[2,3-d][1,3]oxazine]-1-carboxamide (HTL22562): A Calcitonin Gene-Related …” (J Med Chem, 2020).

Usually pKb stands for the Kb on a negative log10 scale, so that one unit is a factor of ten. What is called Papp A→B is how fast a substance crosses the layer from the apical side. For orientation: inhibition means the change of the read-out against control, counted positive when it falls. For orientation: EC50 means the midpoint of the concentration-response curve. A word on the IC50: it is the midpoint of a concentration-inhibition curve. The AUC(0-inf) is total exposure, with the tail of the curve extrapolated. Broadly, the half-life is how long it takes for the measured level to halve.

Bounds are passed on as bounds.

The target of data set [1] is Calcitonin-gene-related peptide receptor, CALCRL/RAMP1 (Homo sapiens, UniProt O60894+Q16602). The experiment in a line: Antagonist activity at human CGRP receptor in human SK-N-MC cells assessed as inhibition of CGRP-induced cAMP production preincubated for 30 mins followed by CGRP addition and measured after 30 mins by HTRF assay. The format is functional, cell-based. (In general: cAMP levels reflect the balance of adenylyl cyclase and phosphodiesterase activity.)

Data set [2] is filed under the species Macaca fascicularis. Briefly: Antagonist activity at cynomolgus monkey CGRP receptor.
For data set [3], the species on record is Canis lupus familiaris. Briefly: Antagonist activity at dog CGRP receptor.
A short description of data set [4]: Apparent permeability across apical to basolateral side in MDCK cells. The format is ADME, cell-based, Canis lupus familiaris. To be noted: dog.
Data set [5] is described as follows: Stability of the compound in pH 5.5 solution at 50 degC assessed as loss of purity after 1 week. The format is physicochemical. To be noted: read-out: Drug degradation.
In data set [6] the target is T1, PXR (NR1I2) (Homo sapiens, UniProt O75469).
T1 sequence (O75469 whole entry): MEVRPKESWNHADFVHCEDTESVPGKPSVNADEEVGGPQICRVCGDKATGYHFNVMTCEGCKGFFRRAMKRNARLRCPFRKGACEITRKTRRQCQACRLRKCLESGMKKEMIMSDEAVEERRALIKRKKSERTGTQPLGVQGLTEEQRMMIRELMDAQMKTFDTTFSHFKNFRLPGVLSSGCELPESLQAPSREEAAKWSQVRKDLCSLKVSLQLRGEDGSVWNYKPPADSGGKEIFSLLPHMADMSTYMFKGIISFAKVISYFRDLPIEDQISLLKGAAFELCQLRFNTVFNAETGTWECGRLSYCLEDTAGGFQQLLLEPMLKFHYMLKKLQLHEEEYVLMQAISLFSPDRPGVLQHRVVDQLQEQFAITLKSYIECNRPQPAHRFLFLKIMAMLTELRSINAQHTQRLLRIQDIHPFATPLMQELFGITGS
Briefly: Transactivation of PXR (unknown origin) assessed as induction of CYP450 at 3 uM relative to control. Format: ADME. To be noted: read-out: FC.

The target in data set [7] is T2, AHR (aryl hydrocarbon receptor) (Homo sapiens, UniProt P35869).
T2 sequence (P35869 whole entry): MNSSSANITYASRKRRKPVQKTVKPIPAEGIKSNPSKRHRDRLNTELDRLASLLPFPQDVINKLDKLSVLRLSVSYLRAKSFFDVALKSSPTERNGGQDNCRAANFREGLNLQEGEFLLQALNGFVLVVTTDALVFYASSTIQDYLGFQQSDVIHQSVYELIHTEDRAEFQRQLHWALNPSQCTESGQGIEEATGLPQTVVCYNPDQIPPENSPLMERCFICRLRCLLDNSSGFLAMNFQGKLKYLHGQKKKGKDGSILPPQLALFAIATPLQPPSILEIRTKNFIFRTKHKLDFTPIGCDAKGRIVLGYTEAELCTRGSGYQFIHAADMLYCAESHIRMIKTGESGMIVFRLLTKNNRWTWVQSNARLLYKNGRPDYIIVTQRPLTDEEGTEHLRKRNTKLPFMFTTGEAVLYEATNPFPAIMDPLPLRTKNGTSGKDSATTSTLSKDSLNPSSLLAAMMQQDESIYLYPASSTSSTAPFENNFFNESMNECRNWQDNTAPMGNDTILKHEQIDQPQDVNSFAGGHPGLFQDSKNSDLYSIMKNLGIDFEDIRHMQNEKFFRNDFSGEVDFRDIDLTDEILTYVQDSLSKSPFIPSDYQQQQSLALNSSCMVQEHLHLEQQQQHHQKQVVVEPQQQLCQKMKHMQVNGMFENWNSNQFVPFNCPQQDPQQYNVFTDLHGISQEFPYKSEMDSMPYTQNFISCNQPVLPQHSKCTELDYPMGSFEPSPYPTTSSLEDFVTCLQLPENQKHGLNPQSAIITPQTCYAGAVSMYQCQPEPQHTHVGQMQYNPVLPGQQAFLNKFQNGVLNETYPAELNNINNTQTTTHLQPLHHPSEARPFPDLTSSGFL
The experiment in a line: Transactivation of AHR (unknown origin) assessed as induction of CYP450 at 3 uM relative to control. Format: ADME. To be noted: read-out: FC.

For data set [8], the target named is T3, Muscarinic acetylcholine receptor M2 (Homo sapiens) (UniProt P08172).
T3 sequence (whole entry): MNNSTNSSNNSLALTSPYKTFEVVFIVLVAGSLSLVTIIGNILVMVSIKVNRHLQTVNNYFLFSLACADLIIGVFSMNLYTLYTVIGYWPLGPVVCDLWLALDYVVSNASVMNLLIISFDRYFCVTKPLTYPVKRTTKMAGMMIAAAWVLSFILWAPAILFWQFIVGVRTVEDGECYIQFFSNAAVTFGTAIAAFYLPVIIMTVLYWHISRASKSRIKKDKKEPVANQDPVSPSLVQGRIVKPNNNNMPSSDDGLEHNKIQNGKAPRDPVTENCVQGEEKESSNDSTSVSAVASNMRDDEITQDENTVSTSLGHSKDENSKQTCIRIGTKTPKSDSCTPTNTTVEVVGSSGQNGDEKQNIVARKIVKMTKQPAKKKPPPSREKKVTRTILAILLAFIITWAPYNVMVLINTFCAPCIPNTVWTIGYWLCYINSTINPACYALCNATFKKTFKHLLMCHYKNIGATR
Briefly: Antagonist activity at CHRM2 (unknown origin) at 10 uM relative to control.

In data set [9] the target is T4, Mas-related G-protein coupled receptor member X2 (Homo sapiens, UniProt Q96LB1).
T4 sequence (Q96LB1 whole entry): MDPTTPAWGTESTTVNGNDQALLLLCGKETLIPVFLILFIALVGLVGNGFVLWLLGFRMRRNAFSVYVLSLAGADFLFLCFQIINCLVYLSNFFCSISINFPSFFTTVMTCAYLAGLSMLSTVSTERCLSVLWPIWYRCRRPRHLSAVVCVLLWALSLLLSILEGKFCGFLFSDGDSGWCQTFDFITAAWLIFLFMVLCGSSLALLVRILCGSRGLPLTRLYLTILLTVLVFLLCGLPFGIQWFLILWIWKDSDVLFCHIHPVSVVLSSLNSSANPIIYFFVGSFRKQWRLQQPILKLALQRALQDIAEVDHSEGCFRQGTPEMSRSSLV
Briefly: Agonist activity at MRGPX2 (unknown origin).

The nature of data set [10]: Protein binding in dog plasma by high-throughput dialysis method. Format: ADME, cell-free, Canis lupus familiaris. To be noted: read-out: PPB (converted).
In data set [11] the target is Cytochrome P450 3A4 (Homo sapiens, UniProt P08684). Briefly: Inhibition of CYP3A4 (unknown origin). Format: ADME.
Chain of Cytochrome P450 3A4 (P08684 whole entry): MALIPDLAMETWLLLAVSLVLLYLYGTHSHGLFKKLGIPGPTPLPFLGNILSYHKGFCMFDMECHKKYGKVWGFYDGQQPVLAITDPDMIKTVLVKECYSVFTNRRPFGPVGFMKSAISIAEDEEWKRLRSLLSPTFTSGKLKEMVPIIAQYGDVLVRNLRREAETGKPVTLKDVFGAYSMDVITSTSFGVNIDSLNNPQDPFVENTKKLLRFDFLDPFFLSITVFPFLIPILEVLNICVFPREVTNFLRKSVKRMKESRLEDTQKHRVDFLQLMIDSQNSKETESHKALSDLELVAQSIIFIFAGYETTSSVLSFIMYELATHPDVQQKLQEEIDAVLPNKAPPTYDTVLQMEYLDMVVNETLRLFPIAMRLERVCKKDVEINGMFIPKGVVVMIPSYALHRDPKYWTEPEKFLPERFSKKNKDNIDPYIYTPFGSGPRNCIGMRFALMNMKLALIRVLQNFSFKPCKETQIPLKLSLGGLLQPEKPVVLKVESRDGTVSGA
Data set [12] deals with Cytochrome P450 2C19 (Homo sapiens, UniProt P33261). The experiment in a line: Inhibition of CYP2C19 (unknown origin). Format: ADME.
Chain of Cytochrome P450 2C19 (P33261 whole entry): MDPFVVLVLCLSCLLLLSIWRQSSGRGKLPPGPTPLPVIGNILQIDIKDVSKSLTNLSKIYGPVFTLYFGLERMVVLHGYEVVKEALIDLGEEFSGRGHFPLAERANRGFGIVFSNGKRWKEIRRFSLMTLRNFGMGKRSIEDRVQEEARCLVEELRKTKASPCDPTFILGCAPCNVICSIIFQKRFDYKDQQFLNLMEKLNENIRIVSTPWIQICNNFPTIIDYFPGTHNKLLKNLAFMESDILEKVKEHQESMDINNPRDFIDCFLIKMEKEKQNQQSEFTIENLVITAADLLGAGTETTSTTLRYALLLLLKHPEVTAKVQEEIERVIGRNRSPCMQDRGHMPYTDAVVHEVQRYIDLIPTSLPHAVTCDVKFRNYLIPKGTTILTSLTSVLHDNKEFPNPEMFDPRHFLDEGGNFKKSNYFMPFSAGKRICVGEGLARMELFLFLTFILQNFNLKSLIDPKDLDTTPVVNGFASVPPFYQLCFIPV
Data set [13] in a line: Genotoxicity in Salmonella typhimurium TA1535 by mini AMES test. Format: toxicity. To be noted: salmonella enterica subsp. enterica serovar typhimurium.
The species entered for data set [14] is Homo sapiens. Briefly: Selectivity ratio of antagonist activity at adrenomedullin-1 receptor (unknown origin) to antagonist activity at human CGRP receptor in human SK-N-MC cells. The format is cell-based.
Data set [15] is described as follows: AUC (infinity) in rat at 1 mg/kg, sc. Format: ADME, organism-based. More on the design: dose 1 mg/kg, route subcutaneous, time infinity. To be noted: in vivo.
A short description of data set [16]: Half life in rat at 2 mg/kg, iv. To be noted: in vivo. Format: ADME, organism-based.
The nature of data set [17]: Half life in dog at 0.5 mg/kg, iv. The format is ADME, organism-based, Canis lupus familiaris. To be noted: in vivo.
Data set [18] is described as follows: Half life in rat at 1 mg/kg, sc. The format is ADME, organism-based. To be noted: in vivo.
Data set [19] in a line: AUC (infinity) in cynomolgus monkey at 0.5 mg/kg, sc. Format: ADME, organism-based, Macaca fascicularis. On the set-up: dose 0.5 mg/kg, route subcutaneous, time infinity. To be noted: in vivo.

Turning to `Cc1cc(C[C@@H](NC(=O)N2CCC3(CC2)OC(=O)Nc2ncccc23)C(=O)N[C@@H](CC2CCNCC2)C(=O)N2CCN(c3ccncc3)CC2)cc2cn[nH]c12` [HTL-0022562], the pKb in data set [1] was 10.2; in data set [2] it was 10.5; in data set [3] it was 7.2. The Papp A→B in [4] was determined as 0.8 ×10⁻⁶ cm/s. For the same compound, the degraded at 168 h in data set [5] turned out to be 0.8%. The fold induction at 3 µM is 2.3 in data set [6] and 1.4 in [7]. This compound also yielded an inhibition in [8] of 65%. Also, the EC50 in data set [9] is 0.9 µM. The fraction unbound in data set [10] is 0.77. Further, the half-inhibitory concentration (IC50) in [11] and in data set [12] was over 50.1 µM throughout. In addition, the Activity entry in data set [13] is “Non-Toxic”. In addition, the Selectivity ratio in [14] was over 8000. The total exposure AUC(0-inf) in [15] was 1280 ng·h/mL; in data set [19] it was 4210 ng·h/mL. Further, the half-life in data set [16] is 4.7 h; in [17], 1.2 h; in [18] it was 2.6 h.
